Results taken from patent publication US20240041813A1, “VERY-LONG-CHAIN POLYUNSATURATED FATTY ACIDS, ELOVANOID HYDROXYLATED DERIVATIVES, AND METHODS OF USE” (priority 2020, published 2024).
Entries after “also recorded” stand apart in the source; their conditions may differ.

Columns and labels:
ACE-2 receptor = assay: ACE-2 protein abundance by Jess capillary western in human alveoli in culture; type: cell-based; settings: effect dependent on addition of IL-1b
Source text: The Simple Protein platform Jess allows running a protein mixture in a capillary system that also serves as a probing matrix for the antibodies. This platform obviates the need to transfer the size-separated proteins onto a membrane with the consequent loss of sample. The sample amount that can be run in Jess is several times smaller than that required for Western blots. Therefore, high throughput is facilitated in cell cultures. The antibodies to this protein have been validated in our laboratory.
c.1.b. Protein abundance using Jess technology. The Simple Protein platform Jess allows running a protein mixture in a capillary electrophoretic system as a probing matrix for the antibodies (we refer to western blot as “Jess WB” here). This platform obviates the need to transfer the size-separated proteins onto a membrane with a potential loss of sample. The sample size run in Jess is several times smaller than that for classical WB. (400 ng protein/capillary column vs. 10 or more μg for classical WB). The proteins we assess will include ACE2, Furin, ADAM17, DPP4, TMPRSS2, protein surfactant D, and Cathepsin L. In addition, senescence and SASP proteins will also be analyzed. […]
ACE2 Protein abundance using Jess technology. […] Soluble protein concentration was determined by BCA assay (Thermo Fisher Scientific, Cat. 23225) and 0.4 μg used/reaction. […]

[1] = test system: receptor-binding domain (RBD) of the SARS-CoV-2 spike; type: cell-based, human
[2] = test system: human corneal epithelial cells (HCEC); assay: HCEC challenged with IFNγ: SASP secretome (β-Gal staining); type: cell-based; settings: HCEC 24 h after IFN-γ challenge
Alexa 594-RBD [3] = type: in vivo; settings: rat cornea after alkali burn; 14 days treatment; Alexa 594-RBD 1 μg/eye, 3 times at day 15, examined a day later
Cdkn2a (p16INK4a) = assay: HCEC challenged with IFNγ: Cdkn2a gene expression; type: cell-based, human; settings: IFNγ 100 ng/ml
Source text: (§1) All experiments with human corneal epithelial cells were approved by the Institutional Review Board of LSUHNO and conducted in accordance with NIH guidelines. HCEC were kept frozen in the laboratory at passage 2544. Cells were maintained in keratinocyte growth (KGM) medium containing the keratinocyte basal medium (KBM) (Lonza: CC-3101) supplemented with bovine pituitary extract (BPE), hEGF, Insulin, Hydrocortisone and Gentamicin Sulfate-Amphotericin (GA-1000) (Lonza, Cat. CC-4131). For all experiments, cells were seeded at 30,000 cells/cm2.
(§2) For screening the stimulation of receptor ACE2 by cytokines, the HCEC were cultured with KGM until 50-60% confluence. Then, changed to KBM containing IL-1β, -2, -6 and 8, IFN-α, -ε, and -γ or TNFα at 1, 10 or 100 ng/ml. The cells were harvested after 6 hours and analyze for the gene expression of Ace2. In other experiments, HCEC were stimulated with IFNγ, and thereafter, lipid mediators were added. For the Alexa 594-conjugated RBD binding, IFNγ was used as a cytokine trigger. At 12 hours after cytokine exposure and lipid mediator treatments, […] of labeled RBD was added to the medium. The evaluation of RBD binding was conducted 24 hours after.
Quantitative PCR was performed with the Biomark HD system (Fluidigm, San Francisco, CA, USA). Briefly, 200 ng of RNA was reverse-transcribed using iScript Reverse Transcription Supermix (Bio-Rad), and the cDNA was pre-amplified using the PreAmp Master Mix (PN 100-5580; Fluidigm). The cDNA was then subjected to Exonuclease I treatment and diluted 5 times in TE Buffer. The qPCR reaction mixture and primer reaction mixture were made and loaded into the Biomark 96.96 IFC™ (Integrated Fluidic Circuit). The enzyme reaction was mixed using Juno™ Controller (Fluidigm) and run using the cycling program of (i) 70° C. for 40 minutes followed by 60° C. for 30 seconds, (ii) hot start for 1 minute at 95° C., (iii) 30 cycles of denaturation at 96° C. for 5 seconds, and annealing at 60° C. for 20 seconds, and (iv) melting curves between 60° C. and 95° C. with 1° C. increments/3 seconds. The Ct value of target genes was normalized to the house-keeping genes Gapdh, Hprt1, and Tfrc before normalized to the vehicle group. Relative fold changes from the ΔΔCT calculation was used to make the graph.

ACE2 [4] = assay: Rat cornea alkali burn: ACE2 abundance by Jess capillary-based Western Blot; type: in vivo; settings: rat cornea after alkali burn; eye drops 20 μl/eye, 3 times/day for 14 days; day 14
Source text: Sprague-Dawley rats (8-week-old male) were obtained from Charles River Laboratories (Wilmington, MA, USA) and kept at the Animal Care of the Neuroscience Center of Excellence, Louisiana State University Health (LSUH; New Orleans, LA, USA). All animals were handled in compliance with the guidelines of the ARVO Statement for the Use of Animals in Ophthalmic and Vision Research, and the experimental protocol was approved by the Institutional Animal Care and Use Committee (IACUC) at LSUH.
(§3) The rats were anesthetized by intraperitoneal injection of Ketamine (50-100 mg/kg) plus xylazine (5-10 mg/kg). A 4 mm diameter filter paper soaked in 1 N NaOH was placed on the central cornea of the right eye for 45 seconds, and then the eye was thoroughly washed with […] of saline. After injury, the rats were randomly divided into five treatment groups: vehicle; lipoxin A4 (LXA4) from Cayman Chemical (Ann Arbor, MI, USA); R,R Resolvin D6 isomer (RvD6i), R,R neuroprotection D (NPD1), and elovanoid (ELV)-N32. All lipid solutions were prepared at the final concentration of […] using PBS with the minimal contamination of ethanol by evaporating the ethanol and immediately dissolve the lipids in PBS, then vortex well for 2 min. Topical administration (20 μl) was done 3×/day for 14 days. The experiments were double-blinded with the lipid mediators coded during the whole experiments. At the end of the study, when all data was collected, the code was opened.
Briefly, samples were lysed with RIPA buffer containing a protease inhibitor cocktail (Sigma, Cat. P8340). Cell debris was removed after 10 min centrifugation at 16,000×g. Protein concentration was determined by BCA assay (Thermo Fisher Scientific, Cat. 23225) and 1 μg used/reaction. Fluorescent Master Mix was mixed with 40 mM DTT, and the mixture was added to each sample to provide a denaturing and reducing environment. Samples were heated at 95° C./5 min, and 3 μL of each sample were loaded. The 12-230 kDa cartridge (Protein Simple—#SM-W004) was used. Primary antibodies were diluted in antibody diluent 2 buffer (Protein Simple, #042-203) while the working solution of secondary antibodies was provided by the company (Protein Simple, #042-206). Then, the filled plate was spin-down for 10 min at 1,000×g to remove bubbles and plate, and capillaries were loaded into the Jess machine. For data analysis, the area of spectra that matched the molecular weight of the target protein was used. To reduce the coefficient variant, we analyzed the GAPDH for each capillary. The ratio of the targeted protein to GAPDH was used for statistical comparisons. For visualization, the artificial lanes generated from spectra volume was used.

ACE2 [5] = assay: Rat cornea alkali burn: corneal RNA-seq, Ace2 gene expression; type: in vivo; settings: rat cornea after alkali burn; eye drops 3 times/day for 14 days; RNA-seq day 14
Method: as §3
(§4) Injured corneas (n=5/condition) were harvested and homogenized with TRIzol (Thermo Fisher Scientific) on ice with a glass Dounce homogenizer. RNA sequencing was performed as described^14. Briefly, after mRNA extraction and determination of purity, 8 ng of total RNA was reverse transcribed, and total cDNAs were amplified using ISPCR primer, and the library was made with the Nextera XT DNA library preparation kit (Illumina, San Diego, CA, USA). The libraries were pooled with the same molarity and sequenced using the NextSeq 500/550 High Output Kit v2 (75 cycles, Illumina). After demultiplexing, RNA-seq data were aligned to the Rattus Norvegicus reference genome (.ensembl.org/pub/release-98/fasta/rattus_norvegicus/dna/) using the Subread package v2.0.1 alignment function39. The BAM files for sequencing data alignment were counted using featureCounts function of Subread tool^40 using the macOS Catalina. The raw count data were subjected to differential gene expression analysis using DESeq2 package for R^41 with the vehicle group as reference. The adjusted p-values were named as the false discover rate (FDR).

Alexa 594-RBD [6] = assay: HCEC challenged with IFNγ: Alexa 594-RBD binding (unbiased imaging, Imaris); type: cell-based, human; settings: IFNγ 100 ng/ml and lipid mediators 200 nM for 12 h, images 24 h after RBD
Method: as §2
Twenty-four hours after Alexa 594-RBD was added to the HCEC, the cells were washed with PBS (3×/5 min) and fixed with 4% paraformaldehyde for 30 minutes at RT. The HCEC were washed 2× with PBS and stained with Hoechst 33342 Solution (ThermoFisher Scientific, Cat. 62249) for 30 minutes at RT. Next, the HCEC were washed 2× with PBS before imaging. For unbiased data collection, 7 designated areas were defined in each well (FIG. 63) and captured with an Olympus FV3000 confocal laser scanning microscopy under “Multi Area Time Lapse” (MATL) mode. All images were acquired with the same parameters and Z-section range, converted and inputted in the Imaris software version 9.5.1. The threshold for the control images was defined by the HCEC without Alexa 594-conjugated RBD of S protein and using it as a threshold filter for the Imaris batch image processing function. The sum of total intensity for each image was used to evaluate the binding efficiency.

ACE2 [7] = assay: HCEC challenged with IFNγ: Ace2 gene expression; type: cell-based, human; settings: IFNγ 100 ng/ml
Source text: as §1, §2
Quantitative PCR was performed with the Biomark HD system (Fluidigm, San Francisco, CA, USA). […]

injured rat cornea = assay: Rat cornea alkali burn: corneal RNA-seq, cytokine storm, NFkB/inflammation, senescence, integrin and protease genes; type: in vivo; settings: rat cornea, RNA-seq 14 days after injury
Method: as §3, §4

| Structure (SMILES) | expression of the ACE-2 receptor (protein abundance, Jess) (ACE-2 receptor) | RBD protein internalization (RBD located below the membrane line) [1] | senescence programming genes and SASP secretome activation (β-Gal) [2] | binding of Alexa 594-RBD to injured cornea (Alexa 594-RBD [3]) | Cdkn2a activation (Cdkn2a (p16INK4a)) | ACE2 abundance (protein, normalized to GAPDH) (ACE2 [4]) | Ace2 gene expression levels (ACE2 [5]) | IFNγ-stimulated Alexa 594-RBD binding (Alexa 594-RBD [6]) | IFNγ-triggered Ace2 activation (ACE2 [7]) | 51 injury-upregulated genes (cytokines, SASP, NFkB inflammatory) (injured rat cornea) | Il6 and Vegfa expression (injured rat cornea) | integrin gene expression (Itga5 and Itgb 1) (injured rat cornea) | transcriptomic profile in PCA plot relative to control cornea (injured rat cornea) |
| --- | --- | --- | --- | --- | --- | --- | --- | --- | --- | --- | --- | --- | --- |
| CC/C=C\CC(O)\C=C/C=C/C=C/C(O)C/C=C\C/C=C\CCCCCCCCCCCCCCC(=O)O [ELV-N34, (16Z,19Z,22R,23E,25E,27Z,29S,31Z)-22,29-dihydroxytetra-triaconta-16,19,23,25,27,31-hexaenoic acid] | downregulate | decrease | – | – | – | – | – | – | – | – | – | – | – |
| CC/C=C\C[C@@H](O)/C=C/C=C\C/C=C\C/C=C\C=C\[C@H](O)CCC(=O)O [RvD6i] | – | – | blocked; also recorded: suppressed | decrease; also recorded: counteracted | decrease | decrease | decrease | attenuated | markedly attenuated; also recorded: suppressed | most are inhibited | reduced | significantly decreased; also recorded: decrease | nearest to the normal cornea |
